In US12077503B2, “Substituted cyclic amides and their use as herbicides” (FMC CORPORATION, priority 2015, dated 2024):

Columns and labels:
Assay type in all cases: in vivo
[1] = tested on: ragweed (common ragweed, Ambrosia elatior); assay: Test A postemergence; details: Ambrosia artemisiifolia, post-emergence, 240 h
How it was run: (§1)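 Greenhouse, ~10 d after spray; visual injury vs untreated controls, 0 = no effect, 100 = complete control. Preemergence: directed soil spray over planted seeds. Postemergence: plants 2–10 cm, 1–2 leaf stage. Loam/sand blend. Compound in non-phytotoxic solvent with surfactant.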

[2] = tested on: ryegrass, Italian (Italian ryegrass, Lolium multiflorum); assay: Test A postemergence; details: Lolium multiflorum, post-emergence, 240 h
How it was run: as §1

Kochia (Kochia scoparia) [3] = assay: Test A postemergence; details: Bassia scoparia, post-emergence, 240 h
How it was run: as §1

[4] = tested on: giant foxtail (Setaria faberii); assay: Test A postemergence; details: Setaria faberi, post-emergence, 240 h
How it was run: as §1

[5] = tested on: Galium (catchweed bedstraw, Galium aparine); assay: Test A postemergence; details: Galium, post-emergence, 240 h
How it was run: as §1

corn (Zea mays) = assay: Test A postemergence; details: Zea mays, post-emergence, 240 h
How it was run: as §1

[6] = tested on: pigweed (Amaranthus retroflexus); assay: Test A postemergence; details: Amaranthus retroflexus, post-emergence, 240 h
How it was run: as §1

[7] = tested on: blackgrass (Alopecurus myosuroides); assay: Test A postemergence; details: Alopecurus myosuroides, post-emergence, 240 h
How it was run: as §1

[8] = tested on: wheat (Triticum aestivum); assay: Test A postemergence; details: Triticum aestivum, post-emergence, 240 h
How it was run: as §1

[9] = tested on: barnyardgrass (Echinochloa crus-galli); assay: Test A postemergence; details: Echinochloa crus-galli, post-emergence, 240 h
How it was run: as §1

[10] = tested on: barnyardgrass (Echinochloa crus-galli); assay: Test B flooded paddy test; details: Echinochloa crus-galli, 250 g ai/ha, Flood; 0 to 100 scale where 0 is no effect and 100 is complete control; read-out: Barnyardgrass plant response rating
How it was run: (§2)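 Flooding to 3 cm over soil accompanied treatment, which consisted of adding compound to the standing water around 2-leaf plants; depth was then maintained. Visual assessment versus controls followed at 13 to 15 d (scale 0–100, 0 meaning no effect).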

[11] = tested on: ducksalad (Heteranthera limosa); assay: Test B flooded paddy test; details: Heteranthera limosa, 250 g ai/ha, Flood; 0 to 100 scale where 0 is no effect and 100 is complete control; read-out: Ducksalad plant response rating
How it was run: as §2

rice (Oryra sativa) = assay: Test B flooded paddy test; details: Oryza sativa, 250 g ai/ha, Flood; 0 to 100 scale where 0 is no effect and 100 is complete control; read-out: Rice plant response rating
How it was run: as §2

[12] = tested on: sedge, umbrella (small-flower umbrella sedge, Cyperus difformis); assay: Test B flooded paddy test; details: Cyperus difformis, 250 g ai/ha, Flood; 0 to 100 scale where 0 is no effect and 100 is complete control; read-out: Sedge, Umbrella plant response rating
How it was run: as §2

[13] = tested on: ragweed (common ragweed, Ambrosia elatior); assay: Test A preemergence; details: Ambrosia artemisiifolia, pre-emergence, 240 h, 0 to 100 scale where 0 is no effect and 100 is complete control, read-out: Ragweed plant response rating
How it was run: as §1

[14] = tested on: ryegrass, Italian (Italian ryegrass, Lolium multiflorum); assay: Test A preemergence; details: Lolium multiflorum, pre-emergence, 240 h, 0 to 100 scale where 0 is no effect and 100 is complete control, read-out: Ryegrass, Italian plant response rating
How it was run: as §1

Kochia (Kochia scoparia) [15] = assay: Test A preemergence; details: Bassia scoparia, pre-emergence, 240 h, 0 to 100 scale where 0 is no effect and 100 is complete control, read-out: Kochia plant response rating
How it was run: as §1

[16] = tested on: giant foxtail (Setaria faberii); assay: Test A preemergence; details: Setaria faberi, pre-emergence, 240 h, 0 to 100 scale where 0 is no effect and 100 is complete control, read-out: Foxtail, Giant plant response rating
How it was run: as §1

[17] = tested on: pigweed (Amaranthus retroflexus); assay: Test A preemergence; details: Amaranthus retroflexus, pre-emergence, 240 h, 0 to 100 scale where 0 is no effect and 100 is complete control, read-out: Pigweed plant response rating
[18] = tested on: barnyardgrass (Echinochloa crus-galli); assay: Test A preemergence; details: Echinochloa crus-galli, pre-emergence, 240 h, 0 to 100 scale where 0 is no effect and 100 is complete control, read-out: Barnyardgrass plant response rating
How it was run: as §1

[19] = 125 g ai/ha, preemergence, approx. 10 d

For `Cc1ccc([C@H]2CN(C)C(=O)[C@@H]2C(=O)Nc2cnccc2C)cc1` [Compound 1070], the pest or weed control at 125 g/ha ([1]; 125 g ai/ha, postemergence, visual injury on 0 to 100 scale (0 no effect, 100 complete control), approx. 10 d, read-out: Ragweed plant response rating) was 0%, the pest or weed control at 31 g/ha ([1]; Postemergence, 31 g ai/ha, visual injury after approx. 10 d, 0 to 100 scale, 0 no effect, 100 complete control, read-out: Plant response rating, Ragweed) was 0% and the pest or weed control at 125 g/ha ([2]; 125 g ai/ha, postemergence, visual injury on 0 to 100 scale (0 no effect, 100 complete control), approx. 10 d, read-out: Ryegrass, Italian plant response rating) was 0%. It also gave a pest or weed control at 31 g/ha ([2]; Postemergence, 31 g ai/ha, visual injury after approx. 10 d, 0 to 100 scale, 0 no effect, 100 complete control, read-out: Plant response rating, Ryegrass, Italian) of 0%, a pest or weed control at 125 g/ha (Kochia (Kochia scoparia) [3]; 125 g ai/ha, postemergence, visual injury on 0 to 100 scale (0 no effect, 100 complete control), approx. 10 d, read-out: Kochia plant response rating) of 0% and a pest or weed control at 31 g/ha (Kochia (Kochia scoparia) [3]; Postemergence, 31 g ai/ha, visual injury after approx. 10 d, 0 to 100 scale, 0 no effect, 100 complete control, read-out: Plant response rating, Kochia) of 0%. For the same molecule, the pest or weed control at 125 g/ha ([4]; 125 g ai/ha, postemergence, visual injury on 0 to 100 scale (0 no effect, 100 complete control), approx. 10 d, read-out: Foxtail, Giant plant response rating) was 0%, the pest or weed control at 31 g/ha ([4]; Postemergence, 31 g ai/ha, visual injury after approx. 10 d, 0 to 100 scale, 0 no effect, 100 complete control, read-out: Plant response rating, Foxtail, Giant) was 0% and the pest or weed control at 125 g/ha ([5]; 125 g ai/ha, postemergence, visual injury on 0 to 100 scale (0 no effect, 100 complete control), approx. 10 d, read-out: Galium plant response rating) was 0%. It also gave a pest or weed control at 31 g/ha ([5]; Postemergence, 31 g ai/ha, visual injury after approx. 10 d, 0 to 100 scale, 0 no effect, 100 complete control, read-out: Plant response rating, Galium) of 0%, a plant injury at 125 g/ha (corn (Zea mays); 125 g ai/ha, postemergence, visual injury on 0 to 100 scale (0 no effect, 100 complete control), approx. 10 d, read-out: Corn plant response rating) of 0% and a Corn plant response rating (crop injury, 0 = no effect, 100 = complete kill) at 31 g/ha (corn (Zea mays); Postemergence, 31 g ai/ha, visual injury after approx. 10 d, 0 to 100 scale, 0 no effect, 100 complete control) of 0%. It also gave a pest or weed control at 125 g/ha ([6]; 125 g ai/ha, postemergence, visual injury on 0 to 100 scale (0 no effect, 100 complete control), approx. 10 d, read-out: Pigweed plant response rating) of 0%, a pest or weed control at 31 g/ha ([6]; Postemergence, 31 g ai/ha, visual injury after approx. 10 d, 0 to 100 scale, 0 no effect, 100 complete control, read-out: Plant response rating, Pigweed) of 0% and a pest or weed control at 125 g/ha ([7]; 125 g ai/ha, postemergence, visual injury on 0 to 100 scale (0 no effect, 100 complete control), approx. 10 d, read-out: Blackgrass plant response rating) of 0%. The pest or weed control at 31 g/ha ([7]; Postemergence, 31 g ai/ha, visual injury after approx. 10 d, 0 to 100 scale, 0 no effect, 100 complete control, read-out: Plant response rating, Blackgrass) was 0%, the plant injury at 125 g/ha ([8]; 125 g ai/ha, postemergence, visual injury on 0 to 100 scale (0 no effect, 100 complete control), approx. 10 d, read-out: Wheat plant response rating) was 0% and the plant injury at 31 g/ha ([8]; Postemergence, 31 g ai/ha, visual injury after approx. 10 d, 0 to 100 scale, 0 no effect, 100 complete control, read-out: Plant response rating, Wheat) was 0%. For the same molecule, the pest or weed control at 125 g/ha ([9]; 125 g ai/ha, postemergence, visual injury on 0 to 100 scale (0 no effect, 100 complete control), approx. 10 d, read-out: Barnyardgrass plant response rating) was 0%, the pest or weed control at 31 g/ha ([9]; Postemergence, 31 g ai/ha, visual injury after approx. 10 d, 0 to 100 scale, 0 no effect, 100 complete control, read-out: Plant response rating, Barnyardgrass) was 0% and the pest or weed control at 250 g/ha [10] was 0%. It also gave a pest or weed control at 250 g/ha [11] of 80%, a pest or weed control at 250 g/ha (rice (Oryra sativa)) of 0% and a pest or weed control at 250 g/ha [12] of 0%. It also gave a pest or weed control at 31 g/ha ([13]; 31 g ai/ha, Preemergence) of 0%, a pest or weed control at 125 g/ha [13, 19] of 0% and a pest or weed control at 31 g/ha ([14]; 31 g ai/ha, Preemergence) of 0%. It also gave a pest or weed control at 125 g/ha [14, 19] of 0%, a pest or weed control at 31 g/ha (Kochia (Kochia scoparia) [15]; 31 g ai/ha, Preemergence) of 0% and a pest or weed control at 125 g/ha (Kochia (Kochia scoparia) [15]; [19]) of 0%. The pest or weed control at 31 g/ha ([16]; 31 g ai/ha, Preemergence) was 0%, the pest or weed control at 125 g/ha [16, 19] was 60% and the pest or weed control at 31 g/ha ([17]; 31 g ai/ha, Preemergence) was 0%. For the same molecule, the pest or weed control at 125 g/ha [17, 19] was 0%, the pest or weed control at 31 g/ha ([18]; 31 g ai/ha, Preemergence) was 0% and the pest or weed control at 125 g/ha [18, 19] was 0%.
